Experimental data published in PubChem BioAssay (NCI).
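Each compound was tested at five concentrations against cells in 96-well plates for 48 hours. Here, GI50 denotes the concentration required for 50% inhibition of growth. The concentration for full growth arrest is given as TGI.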

Experiments:
Assay in all cases: DTP human tumour cell line panel, 48 h
786-0 renal = system: 786-0 renal
A498 renal = system: A498 renal
A549 NSCLC = system: A549 NSCLC
ACHN renal = system: ACHN renal
BT-549 breast = system: BT-549 breast
CCRF-CEM leukemia = system: CCRF-CEM leukemia
COLO 205 colon = system: COLO 205 colon
DU-145 prostate = system: DU-145 prostate
EKVX NSCLC = system: EKVX NSCLC
HCC-2998 colon = system: HCC-2998 colon
HCT-15 colon = system: HCT-15 colon
HL-60(TB) leukemia = system: HL-60(TB) leukemia
HOP-62 NSCLC = system: HOP-62 NSCLC
HOP-92 NSCLC = system: HOP-92 NSCLC
HS 578T breast = system: HS 578T breast
HT29 colon = system: HT29 colon
IGROV1 ovarian = system: IGROV1 ovarian
K-562 leukemia = system: K-562 leukemia
KM12 colon = system: KM12 colon
LOX IMVI melanoma = system: LOX IMVI melanoma
M14 melanoma = system: M14 melanoma
MALME-3M melanoma = system: MALME-3M melanoma
MDA-MB-231 breast = system: MDA-MB-231 breast
MDA-MB-435 = system: MDA-MB-435
MOLT-4 leukemia = system: MOLT-4 leukemia
NCI-H226 lung = system: NCI-H226 lung
NCI-H23 lung = system: NCI-H23 lung
NCI-H460 lung = system: NCI-H460 lung
NCI-H522 lung = system: NCI-H522 lung
NCI/ADR-RES ovarian = system: NCI/ADR-RES ovarian
OVCAR-3 ovarian = system: OVCAR-3 ovarian
OVCAR-4 ovarian = system: OVCAR-4 ovarian
OVCAR-5 ovarian = system: OVCAR-5 ovarian
OVCAR-8 ovarian = system: OVCAR-8 ovarian
PC-3 prostate = system: PC-3 prostate
RPMI-8226 leukemia = system: RPMI-8226 leukemia
RXF 393 renal = system: RXF 393 renal
SF-268 CNS = system: SF-268 CNS
SF-295 CNS = system: SF-295 CNS
SF-539 CNS = system: SF-539 CNS
SK-MEL-2 melanoma = system: SK-MEL-2 melanoma
SK-MEL-28 melanoma = system: SK-MEL-28 melanoma
SK-MEL-5 melanoma = system: SK-MEL-5 melanoma
SK-OV-3 ovarian = system: SK-OV-3 ovarian
SN12C renal = system: SN12C renal
SNB-19 CNS = system: SNB-19 CNS
SNB-75 CNS = system: SNB-75 CNS
SR leukemia = system: SR leukemia
SW-620 colon = system: SW-620 colon
T-47D breast = system: T-47D breast
TK-10 renal = system: TK-10 renal
U251 CNS = system: U251 CNS
UACC-257 melanoma = system: UACC-257 melanoma
UACC-62 melanoma = system: UACC-62 melanoma
UO-31 renal = system: UO-31 renal

O=C(C[n+]1cccc2cc(Cl)ccc21)c1ccc2c(c1)CCCC2 showed a GI50 (786-0 renal) of 2010 nM, a TGI (786-0 renal) of 5.25 µM and a GI50 (A498 renal) of 3.56 µM. For the same compound, the TGI (A498 renal) was 13.3 µM, the GI50 (A549 NSCLC) was 3.7 µM and the TGI (A549 NSCLC) was 13.5 µM. For the same compound, the GI50 (ACHN renal) was 4.91 µM, the TGI (ACHN renal) was 18.5 µM and the GI50 (BT-549 breast) was 1110 nM. For the same compound, the TGI (BT-549 breast) was 2970 nM, the GI50 (CCRF-CEM leukemia) was 1590 nM and the TGI (CCRF-CEM leukemia) was 8.74 µM. For the same compound, the GI50 (COLO 205 colon) was 1500 nM, the TGI (COLO 205 colon) was 3.01 µM and the GI50 (DU-145 prostate) was 1460 nM. The TGI (DU-145 prostate) was 3.33 µM, the GI50 (EKVX NSCLC) was 2460 nM and the TGI (EKVX NSCLC) was 11.3 µM. It also gave a GI50 (HCC-2998 colon) of 1600 nM, a TGI (HCC-2998 colon) of 3.28 µM and a GI50 (HCT-15 colon) of 11.8 µM. For the same compound, the TGI (HCT-15 colon) was 31.7 µM, the GI50 (HL-60(TB) leukemia) was 882 nM and the TGI (HL-60(TB) leukemia) was 3.95 µM. For the same compound, the GI50 (HOP-62 NSCLC) was 1650 nM, the TGI (HOP-62 NSCLC) was 3.85 µM and the GI50 (HOP-92 NSCLC) was 1580 nM. The TGI (HOP-92 NSCLC) was 3.22 µM, the GI50 (HS 578T breast) was 2030 nM and the TGI (HS 578T breast) was 5.43 µM. It also gave a GI50 (HT29 colon) of 1660 nM, a TGI (HT29 colon) of 3.44 µM and a GI50 (IGROV1 ovarian) of 1520 nM. The TGI (IGROV1 ovarian) was 4.08 µM, the GI50 (K-562 leukemia) was 1320 nM and the TGI (K-562 leukemia) was 10.3 µM. It also gave a GI50 (KM12 colon) of 1460 nM, a TGI (KM12 colon) of 3.36 µM and a GI50 (LOX IMVI melanoma) of 831 nM. The TGI (LOX IMVI melanoma) was 2240 nM, the GI50 (M14 melanoma) was 1480 nM and the TGI (M14 melanoma) was 3.2 µM. For the same compound, the GI50 (MALME-3M melanoma) was 1200 nM, the TGI (MALME-3M melanoma) was 2630 nM and the GI50 (MDA-MB-231 breast) was 1500 nM. The TGI (MDA-MB-231 breast) was 3.25 µM, the GI50 (MDA-MB-435) was 1610 nM and the TGI (MDA-MB-435) was 3.38 µM. The GI50 (MOLT-4 leukemia) was 1410 nM, the TGI (MOLT-4 leukemia) was 4.5 µM and the GI50 (NCI-H226 lung) was 1480 nM. The TGI (NCI-H226 lung) was 3.48 µM, the GI50 (NCI-H23 lung) was 1140 nM and the TGI (NCI-H23 lung) was 4.44 µM. For the same compound, the GI50 (NCI-H460 lung) was 1860 nM, the TGI (NCI-H460 lung) was 3.68 µM and the GI50 (NCI-H522 lung) was 1510 nM. For the same compound, the TGI (NCI-H522 lung) was 4.33 µM, the GI50 (NCI/ADR-RES ovarian) was 19.9 µM and the TGI (NCI/ADR-RES ovarian) was 67.3 µM. The GI50 (OVCAR-3 ovarian) was 875 nM, the TGI (OVCAR-3 ovarian) was 2260 nM and the GI50 (OVCAR-4 ovarian) was 982 nM. The TGI (OVCAR-4 ovarian) was 2990 nM, the GI50 (OVCAR-5 ovarian) was 1840 nM and the TGI (OVCAR-5 ovarian) was 4.54 µM. It also gave a GI50 (OVCAR-8 ovarian) of 2980 nM, a TGI (OVCAR-8 ovarian) of 11.2 µM and a GI50 (PC-3 prostate) of 933 nM. It also gave a TGI (PC-3 prostate) of 3.61 µM, a GI50 (RPMI-8226 leukemia) of 910 nM and a TGI (RPMI-8226 leukemia) of 4.09 µM. For the same compound, the GI50 (RXF 393 renal) was 1690 nM, the TGI (RXF 393 renal) was 3.81 µM and the GI50 (SF-268 CNS) was 1440 nM. For the same compound, the TGI (SF-268 CNS) was 3.29 µM, the GI50 (SF-295 CNS) was 1770 nM and the TGI (SF-295 CNS) was 4.22 µM. The GI50 (SF-539 CNS) was 1400 nM, the TGI (SF-539 CNS) was 2850 nM and the GI50 (SK-MEL-2 melanoma) was 1680 nM. For the same compound, the TGI (SK-MEL-2 melanoma) was 3.41 µM, the GI50 (SK-MEL-28 melanoma) was 1620 nM and the TGI (SK-MEL-28 melanoma) was 3.19 µM. It also gave a GI50 (SK-MEL-5 melanoma) of 1260 nM, a TGI (SK-MEL-5 melanoma) of 2550 nM and a GI50 (SK-OV-3 ovarian) of 1720 nM. The TGI (SK-OV-3 ovarian) was 6.94 µM, the GI50 (SN12C renal) was 1270 nM and the TGI (SN12C renal) was 3.04 µM. It also gave a GI50 (SNB-19 CNS) of 1120 nM, a TGI (SNB-19 CNS) of 2650 nM and a GI50 (SNB-75 CNS) of 1350 nM. The TGI (SNB-75 CNS) was 3.2 µM, the GI50 (SR leukemia) was 758 nM and the TGI (SR leukemia) was 6.18 µM. The GI50 (SW-620 colon) was 2030 nM, the TGI (SW-620 colon) was 4.97 µM and the GI50 (T-47D breast) was 1090 nM. For the same compound, the TGI (T-47D breast) was 2710 nM, the GI50 (TK-10 renal) was 2210 nM and the TGI (TK-10 renal) was 4.65 µM. It also gave a GI50 (U251 CNS) of 595 nM, a TGI (U251 CNS) of 1860 nM and a GI50 (UACC-257 melanoma) of 1500 nM. It also gave a TGI (UACC-257 melanoma) of 3.58 µM, a GI50 (UACC-62 melanoma) of 1540 nM and a TGI (UACC-62 melanoma) of 3.49 µM. The GI50 (UO-31 renal) was 5.71 µM and the TGI (UO-31 renal) was 20.4 µM.
